Experimental data as given in patent US12371400B2, “Cathepsin inhibitors” (ACADEMISCH ZIEKENHUIS LEIDEN (H.O.D.N. LUMC), priority 2017, dated 2025).
Entries after “also recorded” stand apart in the source; their conditions may differ.

Tests used:
hCatS = hCatS (Homo sapiens, UniProt P25774); experiment: In vitro inhibition of purified human Cathepsin S (Z-FVR-AMC); type: biochemical; details: 30 min incubation with inhibitor, mean ± SD, triplicate
Method: (§1) Cathepsin (e.g. Cathepsin K/L/V/S/B), in particular purified human Cathepsin, was diluted in freshly prepared reaction buffer consisting of 50 mM MES pH 5.5, 25 mM EDTA and 2.5 mM DTT. 0.05% Tween20 (v/v) may be added to the reaction buffer of the Cathepsin K.
(§2) Activity assays may be conducted in a suitable manner. In the experiments described herein, the assays were typically conducted in Corning 3820 Low Volume 384 Well Assay Plate with a final assay volume of 20 μL. Plates were shaken at 600 rpm for 1 minute and centrifuged at 1000 rpm for 1 minute prior to incubation. Cathepsin activity was quantified using synthetic fluorogenic peptide substrate Z-FR-AMC (Cath K, L, V), Z-RR-AMC (Cath B) or Z-FVR-AMC (Cath S). Fluorescence intensity (λex=350 nm, λem=440 nm) was measured every 2 minutes in arbitrary units (A.U.) on a CLARIOstar (BMG Labtech) microplate reader and values were converted to product formation [AMC]. […] Measurements were performed in triplicate.
(§3) Inhibitors (200 nL, 100× final concentration in DMSO) were diluted in reaction buffer (10 μL). Purified human Cathepsin (5 μL, 4× final concentration) was added and the reaction mixture was incubated for 30 min at room temperature. Fluorogenic substrate (5 μL, 4× final concentration) was added and fluorescence intensity was measured every 2 minutes for 30-90 minutes.
(§4) The potency of the compounds as CatK inhibitors was assessed in an in vitro inhibition assay on purified human CatK (Table 2). Cathepsin was incubated with inhibitor, and the hydrolysis of substrate was initiated by addition of substrate.

human osteoclasts (OCs) = experiment: Inhibition of bone resorption by human osteoclasts cultured on cortical bone slices; type: cell-based; details: for effective dose / concentration inhibiting bone resorption: human OCs on cortical bone slices, staining at day 21
Method: The inhibitory properties on CatK of inhibitors of this invention were tested in a biologically relevant setting: inhibition of bone resorption by osteoclasts (OCs). OCs are the cells that degrade the bone matrix by secretion of acid and CatK into the resorption lacunae, resulting in the cleavage of collagen type I. Inhibition of osteoclastic CatK was studied by culturing OCs on cortical bone slices in presence of inhibitors of this invention (FIG. 5). […] OCs predominantly form deep trenches (paths) while OCs lacking CatK form small pits (circular dots). B) CD14+ monocytes on bone slices were treated with MCSF (day 0) and RANKL (day 3) to stimulate differentiation to mature OCs. Medium containing either an inhibitor or DMSO was refreshed on day 7, 10, 13 and 16. At day 21, OCs were washed away and lysed, and bone slices were stained to visualize bone resorption. C) Bone resorption visualized by staining of resorption pits with Coomassie Brilliant Blue. More staining means more resorption pits, thus more bone resorption activity. Normal D) Schematic overview of pro-Cathepsin K activation. E) CatK activity and expression in OC lysates. […] Darker bands indicate more activity/expression of CatK.

Cathepsin K = biological target: T1, Cathepsin K (Homo sapiens, UniProt P43235); experiment: LC-MS of intact CatK and CatK-inhibitor complexes; type: binding; details: for formation of covalent CatK-inhibitor complex: 6 h incubation, intact protein LC-MS; for Measured mass complex: CatK 3 μM, inhibitor 100 μM, 37° C., 6 h, deconvoluted ESI mass
T1 sequence (P43235 115-329): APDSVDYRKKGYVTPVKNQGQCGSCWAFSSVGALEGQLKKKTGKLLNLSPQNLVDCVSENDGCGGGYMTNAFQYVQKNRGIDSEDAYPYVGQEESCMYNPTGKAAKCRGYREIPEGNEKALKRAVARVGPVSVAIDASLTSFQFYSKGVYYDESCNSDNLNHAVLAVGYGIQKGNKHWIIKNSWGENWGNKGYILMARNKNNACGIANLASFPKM
Method: The masses were determined from deconvoluted electrospray ionization mass spectra of CatK complexes. FIG. 4A to FIG. 4E each provide the result for a sample. In each of these FIGS. 4A to 4E the first panel provides the UPLC chromatogram, the second panel provides the electrospray ionization mass spectrum, and the third panel provides the corresponding deconvoluted electrospray ionization mass spectrum (average isotopes) with an indication of the measured mass of the predominant species. FIG. 4A provides the results obtained for intact CatK. FIG. 4B provides the results obtained for CatK.
Cathepsin K (3 μM) in reaction buffer ([…]) was incubated with inhibitor (100 μM) at 37° C. for 6 hours prior to analysis. 1 μL injections of the sample were made onto a XEVO-G2XSQTOF#YEA928 UPLC-MS system with a Waters Acquity CM detector. Chromatographic separation was carried out on a ACQUITY UPLC® Protein BEH C4 Column over a 12 minute gradient elution of 2% to 100% acetonitrile in water (0.1% formic acid) at a flow rate of 0.500 mL/min. For the first 4 minutes the flow was diverted to the waste to avoid contamination of the MS with high concentrations of buffer components. After 4 minutes, the elution flow was ionized with an ESI ionization source and measured on a XEVO-G2XSQTOF. The results were analyzed using MassLynx V4.1. The total mass of the complex was obtained by deconvolution of electrospray ionization mass spectrum envelope (average isotopes) with the MaxEnt1 function.
Cathepsin K was incubated with ODN, 4, 5 or 6 for 6 h to allow full covalent bond formation and submitted for measurement without any digestion steps, according to the method for LC-MS for intact CatK and CatK-inhibitor complexes described in the assays section above.

hCatK = biological target: T2, hCatK (Homo sapiens, UniProt P43235); experiment: In vitro inhibition of purified human Cathepsin K (fluorogenic substrate Z-FR-AMC); type: biochemical; details: for selectivity for CatK over structurally related human Cathepsins: in words, from Table 2; for IC50: purified human Cathepsin, 30 min incubation with inhibitor, mean ± SD, triplicate
T2 sequence (P43235 115-329): T1 sequence (P43235 115-329)
Method: as §1, §2, §3, §4

hCatV = hCatV (Homo sapiens, UniProt O60911); experiment: In vitro inhibition of purified human Cathepsin V (Z-FR-AMC); type: biochemical; details: 30 min incubation with inhibitor, mean ± SD, triplicate
Chain of hCatV (O60911 114-334): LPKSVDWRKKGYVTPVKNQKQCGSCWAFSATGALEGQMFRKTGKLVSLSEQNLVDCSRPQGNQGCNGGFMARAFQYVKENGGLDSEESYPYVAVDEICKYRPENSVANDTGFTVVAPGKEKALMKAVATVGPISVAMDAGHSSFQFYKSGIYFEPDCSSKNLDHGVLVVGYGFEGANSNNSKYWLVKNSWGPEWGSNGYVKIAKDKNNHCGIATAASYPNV
Method: as §1
as §2, with “In the experiments described herein, the assays were typically conducted in Corning 3820 Low Volume 384 Well Assay Plate with a final assay volume of 20 μL.” left out
as §3, §4

Chain of hCatS (P25774 115-331): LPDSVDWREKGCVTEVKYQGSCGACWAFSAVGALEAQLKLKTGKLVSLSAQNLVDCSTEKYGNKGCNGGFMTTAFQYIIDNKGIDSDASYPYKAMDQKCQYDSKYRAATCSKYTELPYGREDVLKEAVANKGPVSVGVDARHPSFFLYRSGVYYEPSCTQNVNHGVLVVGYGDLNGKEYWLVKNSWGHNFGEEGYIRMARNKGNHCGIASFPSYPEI

| SMILES | IC50 (hCatS) [nM] | inhibition of bone resorption (human osteoclasts (OCs); all tested concentrations) | formation of covalent CatK-inhibitor complex (Cathepsin K) | Measured mass complex (Cathepsin K) | selectivity for CatK over structurally related human Cathepsins (hCatK) | IC50 (hCatK) [nM] | IC50 (hCatV) [nM] | effective dose / concentration inhibiting bone resorption (human osteoclasts (OCs)) | bone resorption staining of bone slices (human osteoclasts (OCs); 3 nM) | bone resorption staining of bone slices (human osteoclasts (OCs); 15 nM) |
| --- | --- | --- | --- | --- | --- | --- | --- | --- | --- | --- |
| C#CC(C)NC(=O)[C@H](CC(C)(C)F)N[C@@H](c1ccc(-c2ccc(S(C)(=O)=O)cc2)cc1)C(F)(F)F (mixture of isomers) [Compound 5, (S)—N—((R/S)-but-3-yn-2-yl)-4-fluoro-4-methyl-2-(((S)-2,2,2-trifluoro-1-(4′-(methylsulfonyl)-[1,1′-biphenyl]-4-yl)ethyl)amino)pentanamide] | 15900 ± 1840 | non-conclusive | formation of a covalent hCatK—inhibitor complex; also recorded: covalent complex formed | 24231 | conserved | 346 ± 11.6 | 45900 ± 2330 | – | – | – |
| C#CCNC(=O)[C@H](CC(C)(C)F)N[C@@H](c1ccc(-c2ccc(S(C)(=O)=O)cc2)cc1)C(F)(F)F [Compound 4, (S)-4-fluoro-4-methyl-N-(prop-2-yn-1-yl)-2-(((S)-2,2,2-trifluoro-1-(4′-(methylsulfonyl)-[1,1′-biphenyl]-4-yl)ethyl)amino)pentanamide] | 10700 ± 842 | – | formation of a covalent hCatK—inhibitor complex; also recorded: covalent complex formed | 24217 | conserved | 293 ± 8.73 | 23800 ± 1410 | ≥ 80 nM | – | – |
| CC(C)(F)C[C@H](N[C@@H](c1ccc(-c2ccc(S(C)(=O)=O)cc2)cc1)C(F)(F)F)C(=O)NC1(C#N)CC1 [ODN, (S)—N-(1-cyanocyclopropyl)-4-fluoro-4-methyl-2-(((S)-2,2,2-trifluoro-1-(4′-(methylsulfonyl)-[1,1′-biphenyl]-4-yl)ethyl)amino)pentanamide, reference compound] | 24.3 ± 0.569 | – | covalent complex formed | 24244 | – | 0.56 ± 0.002 | 605 ± 40.1 | around 15 nM | formation of deep trenches | formation of shallow pits |
